Results from patent US7199082B1, “Methods for extending the freshness of cut flowers, ornamental trees, and plant cuttings” (University of North Texas, priority 1999, dated 2007).
Read-outs that look alike come from different tables or passages of the source.

Assays:
[1] = Solubility of NAEs and NAE formulations in aqueous solutions; format: physicochemical; conditions: longer acyl chain NAEs in the formulations
castor bean PLD α = castor bean PLD α (Ricinus communis, UniProt Q41142); test: biochemical; format: biochemical
Chain of castor bean PLD α (Q41142 31-808 limits assumed): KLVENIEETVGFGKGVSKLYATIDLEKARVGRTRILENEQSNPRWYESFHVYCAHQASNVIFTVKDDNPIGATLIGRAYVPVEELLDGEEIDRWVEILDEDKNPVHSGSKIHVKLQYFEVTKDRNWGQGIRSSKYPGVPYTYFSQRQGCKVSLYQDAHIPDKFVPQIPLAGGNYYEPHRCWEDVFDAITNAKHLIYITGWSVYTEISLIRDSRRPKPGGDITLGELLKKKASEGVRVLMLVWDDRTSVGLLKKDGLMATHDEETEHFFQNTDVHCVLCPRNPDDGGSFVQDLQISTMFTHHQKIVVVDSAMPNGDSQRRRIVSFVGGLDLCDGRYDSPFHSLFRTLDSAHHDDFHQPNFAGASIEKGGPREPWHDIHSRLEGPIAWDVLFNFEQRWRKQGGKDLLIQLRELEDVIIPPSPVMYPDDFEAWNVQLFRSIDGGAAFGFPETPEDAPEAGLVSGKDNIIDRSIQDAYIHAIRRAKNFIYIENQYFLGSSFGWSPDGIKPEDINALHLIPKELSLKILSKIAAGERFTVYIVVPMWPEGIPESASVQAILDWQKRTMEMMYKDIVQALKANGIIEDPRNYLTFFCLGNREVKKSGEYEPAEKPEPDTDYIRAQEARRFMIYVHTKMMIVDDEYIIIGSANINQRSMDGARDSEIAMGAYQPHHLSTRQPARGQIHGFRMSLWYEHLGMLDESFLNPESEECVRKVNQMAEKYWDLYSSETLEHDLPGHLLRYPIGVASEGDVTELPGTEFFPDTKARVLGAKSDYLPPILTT

white carnation = test: Stem wilt of cut carnations (angle of declination at nodes below flower head); format: in vivo; conditions: for Angle of bend of stem, 2nd Node Below Flower / Angle of bend of stem, 3rd Node Below Flower: after 14 days, single stems separated by /
Method: Because NAE inhibited PLD cc activity in vitro, and because PLD activity has been associated with cellular damage in senescing plant tissues, the effect of NAE-containing solutions was tested as senescence-delaying agents for cut flowers. Several parameters were examined with carnations, stem wilt, and flower cross-sectional width and appearance. For stem wilt, the angle of declination at the second and third nodes from the flower head was measured from photographs taken at 14 days after treatments (Table 3). Flowers were either dipped in agar, or not, then dipped into water or NAE 12:0 at 0.1 mM. The larger the angle reported, the greater the wilt or bend of the stem.

carnations = test: Appearance of carnation blooms (brown petals, corolla size); format: in vivo; conditions: after 14 days
Method: In related studies, the appearance of visible signs of senescence (brown petals) and size of the carnation corolla were evaluated at different concentrations of NAE12:0 (Table 4).

long-stem pink roses = test: Appearance of long-stem pink roses; format: in vivo, rose; design: key to Roses appearance (mark): *: Best Appearance; conditions: after 7 days; for Size of Flower Bloom (Cross-Sectional Width at Tip): 2 ml of test solution at day zero, in water
cabbage PLD α = cabbage PLD α (Brassica oleracea var. capitata, UniProt P55939); test: NAE inhibition of highly purified cabbage PLD α; conditions: for remaining activity at 1 µM: read-out: cabbage PLD activity, % of the control; for inhibition of cabbage PLD α: submicromolar to low micromolar amounts (FIG. 6)
Chain of cabbage PLD α (P55939 37-812): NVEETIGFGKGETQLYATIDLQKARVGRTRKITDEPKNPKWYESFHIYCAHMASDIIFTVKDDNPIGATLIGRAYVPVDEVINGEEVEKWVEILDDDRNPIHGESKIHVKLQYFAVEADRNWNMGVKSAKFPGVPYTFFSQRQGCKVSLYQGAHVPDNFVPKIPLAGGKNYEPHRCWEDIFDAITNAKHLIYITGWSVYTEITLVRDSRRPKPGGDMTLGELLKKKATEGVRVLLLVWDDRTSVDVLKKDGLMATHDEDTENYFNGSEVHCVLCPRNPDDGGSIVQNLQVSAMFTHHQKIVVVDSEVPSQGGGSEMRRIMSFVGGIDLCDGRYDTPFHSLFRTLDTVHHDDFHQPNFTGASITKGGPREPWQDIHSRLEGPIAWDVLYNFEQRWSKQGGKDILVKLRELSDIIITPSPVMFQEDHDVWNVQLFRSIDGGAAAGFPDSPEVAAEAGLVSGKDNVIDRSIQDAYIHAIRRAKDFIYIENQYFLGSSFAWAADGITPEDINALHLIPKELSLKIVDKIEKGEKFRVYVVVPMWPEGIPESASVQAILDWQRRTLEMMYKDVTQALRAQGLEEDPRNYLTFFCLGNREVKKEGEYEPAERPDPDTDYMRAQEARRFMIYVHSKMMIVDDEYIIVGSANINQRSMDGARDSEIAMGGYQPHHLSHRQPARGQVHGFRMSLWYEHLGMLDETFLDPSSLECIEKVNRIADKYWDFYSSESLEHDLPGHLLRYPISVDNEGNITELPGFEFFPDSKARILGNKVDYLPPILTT

red Gerber daisy = test: Days before wilting and petal collapse, random blind comparison
S. chromofuscus PLD = test: NAE effect on S. chromofuscus PLD (production of radiolabeled phosphatidic acid); conditions: submicromolar to low micromolar amounts (FIG. 6)
PLD = conditions: Ryu et al., 1997; cited from earlier work
[2] = agar-dipped stem in 0.1 mM NAE 12:0 (n = 2)

CCCCCCCCCCCCCCCCCCCC(=O)NCCO [NAE20:0, N-arachidoylethanolamine]
solubility in water [1]: limited solubility in water

CCCCCCCCCCCCCCCCCC(=O)NCCO [NAE18:0, N-stearoylethanolamine]
IC50 (castor bean PLD α): 10 µM | solubility in water [1]: limited solubility in water

CCCCCCCCCCCC(=O)NCCO [NAE12:0, N-lauroylethanolamine]
IC50 (castor bean PLD α): 0.13 µM | castor bean PLD α activity (castor bean PLD α): no activity | freshness of carnation stems (white carnation; 0.1 mM, 14 days after treatments): provided extended freshness to carnation stems | Angle of bend of stem, 2nd Node Below Flower (white carnation; NAE 12:0 only 0.1 mM (n = 3)): 8/16/12 | Angle of bend of stem, 3rd Node Below Flower (white carnation; NAE 12:0 only 0.1 mM (n = 3)): 8/12/11 | Angle of bend of stem, 2nd Node Below Flower (white carnation; [2]): 27/42 | Angle of bend of stem, 3rd Node Below Flower (white carnation; [2]): 31/13 | Size of Flower Bloom (Cross-Sectional Width) (carnations; 0.0004 mM): 2.6 cm | Size of Flower Bloom (Cross-Sectional Width) (carnations; 0.004 mM): 3.0 cm | visible signs of flower senescence (carnations; 0.04 mM): little evidence of flower senescence | Size of Flower Bloom (Cross-Sectional Width) (carnations; 0.040 mM): 3.3 cm | Size of Flower Bloom (Cross-Sectional Width) (carnations; 0.4 mM): 3.1 cm | Size of Flower Bloom (Cross-Sectional Width at Tip) (long-stem pink roses; 0.0004 mM): 1.0 cm | Size of Flower Bloom (Cross-Sectional Width at Tip) (long-stem pink roses; 0.004 mM): 2.3 cm | Roses appearance (mark) (long-stem pink roses; 0.004 mM): * | Size of Flower Bloom (Cross-Sectional Width at Tip) (long-stem pink roses; 0.04 mM): 1.8 cm | Roses appearance (mark) (long-stem pink roses; 0.04 mM): * | Size of Flower Bloom (Cross-Sectional Width at Tip) (long-stem pink roses; 0.4 mM): 1.8 cm | Roses appearance (long-stem pink roses; cell spans the NAE columns 0.0004 mM to 0.4 mM): NICE APPEARANCE | remaining activity at 1 µM (cabbage PLD α): 37% | inhibition of cabbage PLD α (cabbage PLD α): effective inhibitors | prevention of petal collapse versus water or Aquaplus (red Gerber daisy; 0.2 mM, blind comparison): far superior in preventing petal collapse | Number of Days Before Wilting (red Gerber daisy; NAE 12:0 0.2 mM aqueous solution, Aquaplus dissolved in water according to manufacturer's instructions): 12 days | inhibition of S. chromofuscus PLD (S. chromofuscus PLD): but not of S. chromofuscus PLD

CCCCCCCCCCCCCC(=O)O [myristic acid, reference compound]
cabbage PLD activity (cabbage PLD α; in the presence of 10 μM): unchanged

CCCCCCCCCCCCCC(=O)NCCO [NAE14:0, N-myristoylethanolamine]
IC50 (castor bean PLD α): 0.1 µM | castor bean PLD α activity (castor bean PLD α): no activity | type of inhibition (castor bean PLD α): noncompetitive binding | apparent Vmax (cabbage PLD α; in the presence of 0.01 μM NAE14:0): 11.1 μmol min^−1 mg^−1 protein | type of inhibition (cabbage PLD α; increasing substrate concentration (PC), FIG. 7): noncompetitive inhibition | remaining activity at 1 µM (cabbage PLD α): 22% | inhibition of cabbage PLD α (cabbage PLD α): effective inhibitors | inhibition of S. chromofuscus PLD (S. chromofuscus PLD): but not of S. chromofuscus PLD

CCCCCCCCCCCCCCCC(=O)NCCO [NAE16:0, N-palmitoylethanolamine]
IC50 (castor bean PLD α): 5 µM | solubility in water [1]: limited solubility in water

CCCCC/C=C\C/C=C\CCCCCCCC(=O)NCCO [NAE18:2, N-linoleoylethanolamine]
IC50 (castor bean PLD α): 30 µM

CC/C=C\C/C=C\C/C=C\CCCCCCCC(=O)NCCO [NAE18:3, N-linolenoylethanolamine]
IC50 (castor bean PLD α; read-out: IC50 Values): 80 µM

NCCO [ethanolamine]
inhibitory effect on PLD (PLD): no inhibitory effect
